Test results as given in BindingDB's records for PubMed 35119267 (University of Toronto Mississauga, 2022).
pIC50: −log10 of the molar value.

Target: Histone deacetylase 3 (Homo sapiens, UniProt O15379)
Test: Inhibition of full length human recombinant HDAC3 expressed in Sf9 baculovirus system using FAM-labeled acetylated peptide as substrate by measuring fluorescence intensity by EMSA method

Histone deacetylase 3, sequence (O15379 whole entry): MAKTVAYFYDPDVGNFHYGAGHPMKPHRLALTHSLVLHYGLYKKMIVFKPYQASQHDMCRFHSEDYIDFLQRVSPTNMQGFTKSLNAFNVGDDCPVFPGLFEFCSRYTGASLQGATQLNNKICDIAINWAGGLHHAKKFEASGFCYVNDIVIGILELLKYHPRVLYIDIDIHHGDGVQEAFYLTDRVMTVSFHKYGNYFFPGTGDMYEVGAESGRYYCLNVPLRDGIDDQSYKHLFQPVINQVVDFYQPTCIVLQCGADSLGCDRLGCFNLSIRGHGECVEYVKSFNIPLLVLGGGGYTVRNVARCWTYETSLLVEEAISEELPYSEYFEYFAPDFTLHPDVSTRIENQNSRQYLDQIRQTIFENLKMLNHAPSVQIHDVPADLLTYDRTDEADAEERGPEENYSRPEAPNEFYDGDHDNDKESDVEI

pIC50: < 6.00
SMILES: O=C(NO)c1ccc(CN(C2CC2)S(=O)(=O)c2cc(F)c(F)c(F)c2F)cc1
